Data as given in patent US20120302546A1, “NOVEL SULFAMIDES EXHIBITING NEUROPROTECTIVE ACTION AND METHODS FOR USE THEREOF” (FOX CHASE CHEMICAL DIVERSITY CENTER, INC., priority 2010, published 2012).

What was measured:
[1] = test system: 6 Hz corneal stimulation evoked seizures; assay: 6 Hz psychomotor seizure test in mice; assay type: in vivo; conditions: Mouse 6 Hz, 100 mg/kg, intraperitoneal, vehicle methylcellulose
Description: Methods to measure anticonvulsant activity: All tests were conducted by the Anticonvulsant Screening Program (ASP) of the National Institute of Neurological Disease and Stroke at the National Institutes of Health. The 6 Hz Seizure Test: Compounds were further tested in the 6-Hz psychomotor seizure model (Barton et al., 2001). This model is used to detect seizures that may be useful for the treatment of therapy-resistant partial seizures. For this test, an alternative electrical stimulation paradigm is used with a low frequency (6 Hz), long duration (3 seconds) corneal stimulation. The seizure evoked by this low frequency stimulation is characterized by immobility, forelimb clonus, Straub tail and facial automatisms (Barton et al., 2001). Mice are tested from 15 min to 4 hours following an intraperitoneal dose of 100 mg/kg. Abolition of the clonic seizures indicates the ability of a compound to prevent partial or psychomotor seizures.

[2] = test system: MES-induced seizure spread; assay: Maximal Electroshock Seizure (MES) test in mice; assay type: in vivo; conditions: Mouse MES, intraperitoneal, vehicle methylcellulose
Description: (§1) Methods to measure anticonvulsant activity: All tests were conducted by the Anticonvulsant Screening Program (ASP) of the National Institute of Neurological Disease and Stroke at the National Institutes of Health. The Maximal Electroshock Seizure (MES) or Maximal Seizure Pattern Test: The MES is a model for generalized tonic-clonic seizures (Putnam and Merritt, 1937). It is highly reproducible with consistent endpoints. The behavioral and electrographic seizures generated in this model are consistent with the human disorder. This model identifies those compounds which prevent seizure spread. In the MES test, an electrical stimulus of 0.2 s in duration (50 mA in mice and 150 mA in rat at 60 Hz) is delivered via corneal electrodes primed with an electrolyte solution containing an anesthetic agent. Mice are tested at 30 minutes and 4 hours following doses of 30, 100 and 300 mg/kg of test compound. Test compounds are administered intraperitoneally to the mice. Rats are tested at time intervals between 0.25 and 4 hours following a standard oral dose of 30 mg/kg. Abolition of the hindlimb tonic extensor component indicates the test compound's ability to inhibit MES-induced seizure spread.

[3] = test system: MES-induced seizure spread; assay: Maximal Electroshock Seizure (MES) test in rats; assay type: in vivo; conditions: Rat MES, 30 mg/kg, oral, vehicle methylcellulose
Description: as §1

Hippocampal Cultures [4] = assay: Neuroprotection from glutamate excitotoxicity, propidium iodide cell death assay; assay type: cell-based, rat; conditions: Day 15 Hippocampal Cultures, 30 μM glutamate (FIG. 5)
Hippocampal Cultures [5] = assay: Neuroprotection from glutamate excitotoxicity, CFDA neuronal viability assay; assay type: cell-based, rat; conditions: day 20 hippocampal cultures, 5 min 30 μM glutamate, CFDA assay 24 hours after initiation of treatment (FIG. 1-3)
Description: Pharmacology: Hydroxyethyl sulfamides attenuate glutamate-mediated neuronal viability. As an example, compound II, shown above, is shown to attenuate a decrease in carboxyfluorescein diacetate (CFDA) produced by acute treatment with glutamate in FIG. 1. For these studies, day 20 hippocampal cultures derived from E18 rats were treated for 5 min with 30 μM glutamate. Following removal of the glutamate, cultures were treated with various concentrations of compound II and the CFDA neuronal viability assay was conducted 24 hours after the initiation of treatment. The dotted line labeled “control” represents the mean CFDA value for control culture receiving no treatment. The dotted line labeled “carisbamate” represents the mean CFDA value for the reference compound carisbamate, a putative neuroprotective, anticonvulsant. For the CFDA measurements, RFU is the abbreviation for relative fluorescent units. The reference anticonvulsant compound carisbamate was tested at 100 μM, as lower concentrations were ineffective.
Cell cultures: All compounds are screened with dissociated hippocampal cultures derived from embryonic day 18 rats as the primary test system. With this preparation, primary neurons are used to test for toxicity as well as neuroprotection in a highly relevant experimental system to epilepsy. In brief, hippocampal tissue are obtained commercially through Brain Bits (Springfield, Ill.) and cultures prepared as previously described by Brewer (Brewer, G. J. Serum-free B27/neurobasal medium supports differentiated growth of neurons from the striatum, substantia nigra, septum, cerebral cortex, cerebellum and dentate gyms, J. Neurosci. Res. 1995, 42, 674-683.). The hippocampal neurons are platted at low density (10,000 cell/well) in a 96-well format and maintained in serum-free medium consisting of Neurobasal Medium supplemented with B27 and GlutaMAX (Gibco). Pre-coated poly-L-lysine coated plates are used because of the preferential adherence and survival of hippocampal neurons on this matrix support.
Carboxyfluorescein (CFDA) was used a vital stain for all cell toxicity and neuroprotection studies. With the use of the CytoFluor fluorimeter, the CFDA assay was employed to assess the viability of neurons. CFDA is a dye that becomes fluorescent upon cell entry and cleavage by cytosolic esterases (Petroski, R. E.; Geller, H. M Selective labeling of embryonic neurons cultures on astrocyte monolayers with 5(6)-carboxyfluorescein diacetate (CFDA). J. Neurosci. Methods 1994, 52, 23-32.). Neuronal specificity is obtained relative to astrocytes because the cleaved dye is extruded extracellularly by glia with time, while dye in neurons remains intracellular. […] To further assess the culture responses, a propidium iodide method was used as previously described (Sarafian, T. A.; Kouyoumjian, S.; Tashkin, D.; Roth, M. D. Synergistic cytotoxicity of 9-tetrahydrocannabianol and butylated hydroxyanisole, Tox. Letters, 2002. 133, 171-179.) to measure the number of dead cells. Propidium iodide becomes fluorescent when binding to the DNA of dead cells. Cultures were treated on day 2 with the test agent and then the two assays were conducted after a […] test period. For all assays, a 96-well format was used. For the screen, log concentration-effect studies were conducted from 10 nM to 1 mM with 8 replications. The duration of the test period was five days. Cultures were given a complete change of medium prior to the initiation of the treatment period.
Potent neuroprotection is the distinguishing characteristic that separates this program's anticonvulsants from all other commercial drugs for epilepsy. The experimental details and the rationale for the implemented assays are essential in differentiating these compounds from that of others. The central objective of all neuroprotective assays was their relevancy to excitotoxicity and oxidative stress related to epilepsy. […]

| Structure (SMILES) | # animals active/# animals tested ([1]; 0.25 hr) | # animals active/# animals tested ([1]; 0.5 hr) | # animals active/# animals tested ([1]; 1.0 hr) | # animals active/# animals tested ([1]; 2.0 hr) | # animals active/# animals tested ([1]; 4.0 hr) | # animals active/# animals tested ([2]; 30 mg/kg, 4 hr) | # animals active/# animals tested ([2]; 100 mg/kg, 4 hr) | # animals active/# animals tested ([2]; 300 mg/kg, 4 hr) | # animals active/# animals tested ([3]; 1 hr) | # animals active/# animals tested ([3]; 2 hr) | # animals active/# animals tested ([3]; 4 hr) | # animals active/# animals tested ([2]; 30 mg/kg, 0.5 hr) | # animals active/# animals tested ([2]; 100 mg/kg, 0.5 hr) | # animals active/# animals tested ([2]; 300 mg/kg, 0.5 hr) | # animals active/# animals tested ([3]; 0.25 hr) | # animals active/# animals tested ([3]; 0.5 hr) | effect on glutamate-mediated increase in cell death (propidium iodide) (Hippocampal Cultures [4]) | effect on glutamate-mediated decrease in neuronal viability (CFDA) (Hippocampal Cultures [5]) |
| --- | --- | --- | --- | --- | --- | --- | --- | --- | --- | --- | --- | --- | --- | --- | --- | --- | --- | --- |
| NS(=O)(=O)NCC(O)c1ccccc1F (stereo not shown) [drawing 55] | 0/4 | 1/4 | 1/4 | 1/4 | 1/4 | 0/1 | 1/3 | 1/1 | 0/4 | 1/4 | 2/4 | – | – | – | – | – | – | – |
| NS(=O)(=O)NC[C@@H](O)c1ccccc1Cl [drawing 54] | 0/4 | 1/4 | 1/4 | 0/4 | – | – | – | – | – | – | – | 0/1 | 2/3 | 1/1 | 1/4 | 0/4 | – | – |
| NS(=O)(=O)NC[C@@H](O)c1ccccc1Cl [compound III] | – | – | – | – | – | – | – | – | – | – | – | – | – | – | – | – | efficacious | efficacious |
